Measured values as given in patent US5545639A, “Method of inhibiting transformed cells” (The United States of America as represented by the …, priority 1994, dated 1996).

What was measured:
[1] = mouse
[2] = system: P388/ADR; assay: Dose response of growth, tumor cell line; type: cell-based, murine; details: miscellaneous
Description: (§1) Indeed, 70% of the cell lines were shown not only to experience precluded growth, but cell death, when exposed to less then 100 μM of the active ingredient.

[3] = system: P388; assay: Dose response of growth, tumor cell line; type: cell-based, murine; details: P388, miscellaneous
Description: as §1

[4] = system: SF-539; assay: Dose response of growth, tumor cell line; type: cell-based; details: Homo sapiens, SF-539, CNS cancer
Description: as §1

[5] = system: SK-OV-3; assay: Dose response of growth, tumor cell line; type: cell-based; details: Homo sapiens, SK-OV-3, ovarian cancer
Description: as §1

[6] = system: UACC-257; assay: Dose response of growth, tumor cell line; type: cell-based; details: Homo sapiens, UACC-257, melanoma
Description: as §1

[7] = system: SK-MEL-28; assay: Dose response of growth, tumor cell line; type: cell-based; details: Homo sapiens, SK-MEL-28, melanoma
Description: as §1

[8] = system: OVCAR-4; assay: Dose response of growth, tumor cell line; type: cell-based; details: Homo sapiens, OVCAR-4, ovarian cancer
Description: as §1

[9] = system: SF-268; assay: Dose response of growth, tumor cell line; type: cell-based; details: Homo sapiens, SF-268, CNS cancer
Description: as §1

[10] = system: XF 498; assay: Dose response of growth, tumor cell line; type: cell-based; details: Homo sapiens, XF498, XF 498, CNS cancer
Description: as §1

[11] = system: M19-MEL; assay: Dose response of growth, tumor cell line; type: cell-based; details: Homo sapiens, melanoma
Description: as §1

[12] = system: RXF-393; assay: Dose response of growth, tumor cell line; type: cell-based; details: Homo sapiens, RXF-393, renal cancer
Description: as §1

[13] = system: KM20L2; assay: Dose response of growth, tumor cell line; type: cell-based; details: Homo sapiens, KM-20L2, KM20L2, colon cancer
Description: as §1

[14] = system: HT29; assay: Dose response of growth, tumor cell line; type: cell-based; details: Homo sapiens, HT-29, HT29, colon cancer
Description: as §1

[15] = system: U251; assay: Dose response of growth, tumor cell line; type: cell-based; details: Homo sapiens, U-251, U251, CNS cancer
Description: as §1

[16] = system: NCI-H522; assay: Dose response of growth, tumor cell line; type: cell-based; details: Homo sapiens, NCI-H522, non-small cell lung cancer
Description: as §1

[17] = system: OVCAR-8; assay: Dose response of growth, tumor cell line; type: cell-based; details: Homo sapiens, OVCAR-8, ovarian cancer
Description: as §1

[18] = system: IGROVI; assay: Dose response of growth, tumor cell line; type: cell-based; details: Homo sapiens, ovarian cancer
Description: as §1

[19] = system: KM12; assay: Dose response of growth, tumor cell line; type: cell-based; details: Homo sapiens, KM12, colon cancer
Description: as §1

[20] = system: SN12C; assay: Dose response of growth, tumor cell line; type: cell-based; details: Homo sapiens, renal cancer
Description: as §1

[21] = system: HOP-62; assay: Dose response of growth, tumor cell line; type: cell-based; details: Homo sapiens, HOP-62, non-small cell lung cancer
Description: as §1

[22] = system: RPMT-8226; assay: Dose response of growth, tumor cell line; type: cell-based; details: Homo sapiens, RPMT-8226, leukemia
Description: as §1

[23] = system: NCI-H23; assay: Dose response of growth, tumor cell line; type: cell-based; details: Homo sapiens, NCI-H23, non-small cell lung cancer
Description: as §1

[24] = system: MALME-3M; assay: Dose response of growth, tumor cell line; type: cell-based; details: Homo sapiens, melanoma
Description: as §1

[25] = system: K-562; assay: Dose response of growth, tumor cell line; type: cell-based; details: Homo sapiens, K562, K-562, leukemia
Description: as §1

[26] = Mus musculus, read-out: 50% Growth (Relative to Control)
[27] = Mus musculus, read-out: No Growth (Relative to Control)
[28] = read-out: 50% Growth (Relative to Control)
[29] = read-out: No Growth (Relative to Control)

ClCc1ccc2ccc3ccc(CCl)nc3c2n1 [2,9-bis(chloromethyl)-1,10-phenanthroline]
tolerated in vivo concentration relative to 100 μM in vitro [1]: at least 8.5 times
toxicity in an animal ([1]; in vivo, 250 mg/kg): not toxic
tolerability in mammals compared with the brominated derivative ([1]; in vivo, ip): better tolerated
IC50 [2, 26]: 0.355 µM
IC100 [2, 27]: 3.82 µM
CC50 ([2]; read-out: 50% Loss (50% kill)): > 100 µM
IC50 [3, 26]: 0.735 µM
IC100 [3, 27]: 3.01 µM
CC50 ([3]; read-out: 50% Loss (50% kill)): 25.1 µM
IC50 [4, 28]: 2.99 µM
CC50 ([4]; read-out: 50% Loss (50% kill)): 41.8 µM
IC100 [4, 29]: 11.2 µM
IC50 [5, 28]: 8.9 µM
CC50 ([5]; read-out: 50% Loss (50% kill)): > 10 µM
IC100 [5, 29]: > 10 µM
IC50 [6, 28]: 0.78 µM
CC50 ([6]; read-out: 50% Loss (50% kill)): 5.58 µM
IC100 [6, 29]: 2.03 µM
IC50 [7, 28]: 1.35 µM
CC50 ([7]; read-out: 50% Loss (50% kill)): 6.5 µM
IC100 [7, 29]: 2.97 µM
IC50 [8, 28]: 3.15 µM
CC50 ([8]; read-out: 50% Loss (50% kill)): 34.9 µM
IC100 [8, 29]: 9.37 µM
IC50 [9, 28]: 1.79 µM
IC100 [9, 29]: 3.74 µM
IC50 [10, 28]: 1.72 µM
CC50 ([10]; read-out: 50% Loss (50% kill)): > 100 µM
IC100 [10, 29]: 5.63 µM
IC50 [11, 28]: 1.31 µM
CC50 ([11]; read-out: 50% Loss (50% kill)): 5.28 µM
IC100 [11, 29]: 2.63 µM
IC50 [12, 28]: 1.65 µM
CC50 ([12]; read-out: 50% Loss (50% kill)): 6.03 µM
IC100 [12, 29]: 3.16 µM
IC50 [13, 28]: 2.72 µM
CC50 ([13]; read-out: 50% Loss (50% kill)): 28.3 µM
IC100 [13, 29]: 7.21 µM
IC50 [14, 28]: 1.31 µM
CC50 ([14]; read-out: 50% Loss (50% kill)): 5.48 µM
IC100 [14, 29]: 2.68 µM
IC50 [15, 28]: 2.06 µM
CC50 ([15]; read-out: 50% Loss (50% kill)): 8.11 µM
IC100 [15, 29]: 4.09 µM
IC50 [16, 28]: 1.76 µM
CC50 ([16]; read-out: 50% Loss (50% kill)): 6.71 µM
IC100 [16, 29]: 3.44 µM
IC50 [17, 28]: 6.85 µM
CC50 ([17]; read-out: 50% Loss (50% kill)): > 100 µM
IC100 [17, 29]: > 100 µM
IC50 [18, 28]: 1.51 µM
CC50 ([18]; read-out: 50% Loss (50% kill)): 6.25 µM
IC100 [18, 29]: 3.07 µM
IC50 [19, 28]: 0.761 µM
CC50 ([19]; read-out: 50% Loss (50% kill)): 6.43 µM
IC100 [19, 29]: 2.39 µM
IC50 [20, 28]: 3.35 µM
CC50 ([20]; read-out: 50% Loss (50% kill)): > 100 µM
IC100 [20, 29]: > 100 µM
IC50 [21, 28]: 2.29 µM
CC50 ([21]; read-out: 50% Loss (50% kill)): 19.2 µM
IC100 [21, 29]: 5.3 µM
IC50 [22, 28]: 1.25 µM
CC50 ([22]; read-out: 50% Loss (50% kill)): > 100 µM
IC100 [22, 29]: 36.6 µM
IC50 [23, 28]: 1.87 µM
CC50 ([23]; read-out: 50% Loss (50% kill)): 7.24 µM
IC100 [23, 29]: 3.68 µM
IC50 [24, 28]: 1.89 µM
CC50 ([24]; read-out: 50% Loss (50% kill)): 6.16 µM
IC100 [24, 29]: 3.41 µM
IC50 [25, 28]: 3.19 µM
CC50 ([25]; read-out: 50% Loss (50% kill)): > 100 µM
IC100 [25, 29]: > 100 µM
